# Measurements reported in US20220218837A1, “DRUG CONJUGATE” (priority 2018, published 2022).
# Key:
# [1] = test system: SK-BR-3, JIMT-1, MDA-MB-468, A431, CaSki, HeLa, A2058; assay: Control treatments, relative cell viability on all cell lines; format: cell-based, human; conditions: wide range of toxin concentrations, up to 100.000 pM
# [2] = test system: A431 cells (EGFR++/HER2+/-/CD71+)
# HeLa cells (EGFR+/-) = assay: Cell killing / cell viability, HeLa cells
# [3] = test system: HSP27 mRNA in A431 cells (EGFR++); assay: HSP27 gene silencing in A431 cells; format: cell-based, human
# Method: (§1) Cells were seeded in DMEM (PAN-Biotech GmbH) supplemented with 10% fetal bovine serum (PAN-Biotech GmbH) and 1% penicillin/streptomycin (PAN-Biotech GmbH), in a 96 well plate at 5,000 c/w in 100 μL/well and incubated overnight at 37° C. and 5% CO2. The next day samples were prepared in DMEM and cells were treated.
# (§2) RNA isolation and Qper analysis was performed according to standard procedures and protocols.
# [4] = test system: HSP27 mRNA in A2058 cells (EGFR-); assay: HSP27 gene silencing in A2058 cells; format: cell-based, human; conditions: titrated + fixed 4000 nM SO1861-EMCH, nM of HSP27BNA or of conjugate
# Method: as §1, §2
molecule,measurement,setting,value
saporin,influence on cell viability,[1],do not or hardly have any influence on cell viability
CC(=O)OC1C(C)OC(OC2C(C)OC(OC(=O)[C@]34CCC(C)(C)CC3C3=CCC5[C@@]6(C)CC[C@H](OC7OC(C(=O)O)C(O)C(OC8OCC(O)C(O)C8O)C7OC7OC(CO)C(O)C(O)C7O)[C@@](C)(/C=N/NC(=O)CCCCCN7C(=O)C=CC7=O)C6CC[C@@]5(C)[C@]3(C)C[C@H]4O)C(OC3OC(C)C(OC4OCC(O)C(OC5OC(CO)C(O)C(O)C5O)C4O)C(O)C3O)C2O)C(O)C1OC1OCC(O)C(O)C1O (some centres unmarked) [SO1861-EMCH],concentration above which general toxicity is seen without EGFdianthin,[2]; single compound,> 25.000 nM
same,concentration above which general toxicity is seen without EGFdianthin,A2058 cells (EGFR-); single compound,> 25.000 nM
same,IC50 cell viability reduction,A2058 cells (EGFR-); titrated + fixed […] EGFdianthin,not affected at all
same,concentration above which general toxicity is seen without EGFdianthin,HeLa cells (EGFR+/-); single compound,> 25.000 nM
"HSP27BNA: antisense BNA oligo targeting HSP27 mRNA, sequence 5′-GGCacagccagtgGCG-3′ (antisense GGCACAGCCAGTGGCG; BNA modifications)",IC50,[3]; titrated + fixed 28.6 nM or 77 nM cetuximab-(Cys-L-SO1861)^3.9,10 nM
same,IC50,"[3]; titrated + fixed 4000 nM SO1861-EMCH, nM of HSP27BNA or of conjugate",10 nM
same,IC50,[4],10 nM
CC(=O)OC1C(C)OC(OC2C(C)OC(OC(=O)[C@]34CCC(C)(C)CC3C3=CCC5[C@@]6(C)CC[C@H](OC7OC(C(=O)O)C(O)C(OC8OCC(O)C(O)C8O)C7OC7OC(CO)C(O)C(O)C7O)[C@@](C)(C=O)C6CC[C@@]5(C)[C@]3(C)C[C@H]4O)C(OC3OC(C)C(OC4OCC(O)C(OC5OC(CO)C(O)C(O)C5O)C4O)C(O)C3O)C2O)C(O)C1OC1OCC(O)C(O)C1O (some centres unmarked) [SO1861],IC50 cell killing,"[2]; substance alone, no partner",strong cell viability reduction
same,IC50 cell killing,"A2058 cells (EGFR-); substance alone, no partner",strong cell viability reduction
same,IC50 cell viability (general toxicity),"HeLa cells (EGFR+/-); substance alone, in absence of EGFdianthin",strong cell viability reduction
